Assay results from article PMC10552397 (Cell Communication and Signaling : CCS, 2023).

Legend:
HeLa wt cells [1] = assay: Immunofluorescence of GRASP55 and LC3; format: cell-based; details: 6 h; BafA1 10 nM
Protocol: (§1) For immunofluorescence microscopy, HeLa cells were seeded on glass coverslips in 24-well plates. After treatment, cells were fixed in 4% paraformaldehyde for 15 min on ice, quenched with 50 mM NH4Cl for 15 min and permeabilized with 50 µg/mL digitonin (Sigma-Aldrich, St. Louis, MO, USA, #D141) for 5 min. Fixed samples were blocked with 3% BSA (Roth, Karlsruhe, Germany, #8076) for 30 min or overnight and incubated with primary antibodies diluted in 3% BSA for 2 h. Samples were then washed three times with DPBS, incubated with the appropriate secondary antibodies diluted in 3% BSA for 30 min and washed three times with DPBS. Afterwards, cells were embedded in ProLong Glass Antifade Mountant (Thermo Fisher Scientific, Waltham, MA, USA, #P36980) containing 1 µg/mL DAPI (Roth, Karlsruhe, Germany, #6335.1). Images were recorded with an Axio Observer 7 fluorescence microscope (Carl Zeiss Microscopy, Oberkochen, Germany) using a 40x/1,4 Oil DIC M27 Plan-Apochromat objective (Carl Zeiss Microscopy, Oberkochen, Germany) and an ApoTome 2 (Carl Zeiss Microscopy, Oberkochen, Germany).

HeLa wt cells [2] = assay: Immunofluorescence of LC3 and LAMP1; format: cell-based; details: 2 h; prodigiosin 100 nM, BafA1 10 nM
Protocol: as §1

CO/C1=C\C(C)=C\[C@@H](C)[C@@H](O)[C@@H](C)C/C(C)=C/C=C/[C@H](OC)[C@@H]([C@@H](C)[C@@H](O)[C@H](C)[C@@]2(O)C[C@@H](O)[C@H](C)[C@@H](C(C)C)O2)OC1=O [BafA1, bafilomycin A1, reference compound]
co-localization of LC3 and GRASP55 (HeLa wt cells [1]): no significant increase | number of LC3 dots (HeLa wt cells [1]): enriched | LC3-positive structures (HeLa wt cells [2]): only minor | co-localization of LC3- and LAMP1-positive structures (HeLa wt cells [2]): comparatively low
